Patent publication US8084467B2, “Pyrazole derivatives as cannabinoid receptor antagonists” (University of Connecticut, priority 2004, dated 2011)
“And” between values parts separate entries of the source, which are not always exact repeats. Equal values may be shown once. Read-outs that look alike come from different tables or passages of the source.

Legend:
CB2 receptor = molecular target: T1, CB2 receptor (Mus musculus, UniProt P47936); assay: CB2 receptor binding, mouse spleen membranes, same manner as the CB1 binding assay; conditions: for Ki: [3H] CP-55,940; for selectivity CB2: ratio of CB1 Ki to CB2 Ki
T1 construct: membranes were prepared from frozen mouse spleen; from tissue; host or cells: mouse spleen
T1 sequence (P47936 whole entry): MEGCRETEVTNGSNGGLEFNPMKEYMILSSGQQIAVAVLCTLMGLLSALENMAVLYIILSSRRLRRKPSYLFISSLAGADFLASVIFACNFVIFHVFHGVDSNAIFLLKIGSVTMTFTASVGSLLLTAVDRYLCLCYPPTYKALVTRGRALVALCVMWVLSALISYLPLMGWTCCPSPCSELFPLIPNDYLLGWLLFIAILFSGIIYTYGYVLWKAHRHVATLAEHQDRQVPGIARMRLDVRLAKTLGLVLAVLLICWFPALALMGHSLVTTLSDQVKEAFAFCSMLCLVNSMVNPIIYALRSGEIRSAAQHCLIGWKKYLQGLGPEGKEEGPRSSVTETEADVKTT
Protocol: Some of the inventive analogs were tested for CB2 receptor binding affinity and for CB1 receptor affinity (to determine selectivity). […] The lower the Ki value the higher the binding affinity.
(§1) The treated membranes were subsequently used in the binding assay described below. Approximately 30 μg of membranes were incubated in silanized 96-well microtiter plate with TME containing 0.1% essentially fatty acid-free bovine serum albumin (BSA), 0.8 nM [^3H] […] Radioactivity was detected using MicroScint 20 scintillation cocktail added directly to the dried filterplates, and the filterplates were counted using a Packard Instruments Top-Count. […] Data collected from three independent experiments performed with duplicate determinations was normalized between 100% and 0% specific binding for [^3H] […] The normalized data was analyzed using a 4-parameter nonlinear logistic equation to yield IC50 values.
Silanized centrifuge tubes were used throughout to minimize receptor loss due to adsorption. The CB2 binding assay was conducted in the same manner as for the CB1 binding assay. The binding affinities (Ki) were also expressed in nanomoles (nM).

CB1 cannabinoid receptor = molecular target: T2, CB1 cannabinoid receptor (Rattus norvegicus, UniProt P20272); assay: CB1 receptor binding, rat forebrain membranes, [3H] CP-55,940 displacement; conditions: for Ki: 0.8 nM [3H] CP-55,940; for selectivity CB1: ratio of CB2 Ki to CB1 Ki
T2 construct: membranes were prepared from rat forebrain membranes; from tissue; host or cells: rat forebrain
T2 sequence (P20272 whole entry): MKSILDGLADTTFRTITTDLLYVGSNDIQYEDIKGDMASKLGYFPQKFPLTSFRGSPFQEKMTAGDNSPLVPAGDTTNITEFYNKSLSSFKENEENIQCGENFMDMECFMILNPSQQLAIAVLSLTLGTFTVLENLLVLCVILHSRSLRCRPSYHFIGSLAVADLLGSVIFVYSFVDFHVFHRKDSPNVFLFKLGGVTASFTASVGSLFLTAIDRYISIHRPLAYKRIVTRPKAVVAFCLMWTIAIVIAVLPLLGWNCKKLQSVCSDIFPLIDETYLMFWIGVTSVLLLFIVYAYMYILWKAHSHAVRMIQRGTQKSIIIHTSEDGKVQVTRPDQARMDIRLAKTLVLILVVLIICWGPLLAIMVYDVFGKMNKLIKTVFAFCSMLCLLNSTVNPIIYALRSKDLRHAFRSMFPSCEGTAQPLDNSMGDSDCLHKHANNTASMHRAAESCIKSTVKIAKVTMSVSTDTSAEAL
Protocol: Some of the inventive analogs were tested for CB2 receptor binding affinity and for CB1 receptor affinity (to determine selectivity). […] The lower the Ki value the higher the binding affinity. […]
Membranes, previously frozen at −80° C., were thawed on ice. To the stirred suspension was added three volumes of TME (25 mM Tris-HCl buffer, 5 mM MgCl2 and 1 mM EDTA) at a pH 7.4. The suspension was incubated at 4° C. for 30 min. At the end of the incubation, the membranes were pelleted and washed three times with TME.
as §1

[1] = mouse spleen membranes, read-out: affinities Ki CB2
[2] = rat forebrain membranes, read-out: affinities Ki CB1
[3] = affinities Ki CB2, mouse spleen membranes
[4] = affinities Ki CB1, rat forebrain membranes

Structure (SMILES) | Ki (CB2 receptor; [1]) [nM] | Ki (CB1 cannabinoid receptor; [2]) [nM] | selectivity CB1 (CB1 cannabinoid receptor) | Ki (CB2 receptor; [3]) | selectivity CB2 (CB2 receptor) | Ki (CB1 cannabinoid receptor; [4])
CCOCc1c(C(=O)NC23CC4CC(CC(C4)C2)C3)nn(-c2ccc(Cl)cc2Cl)c1-c1ccc(Br)cc1 [Compound 1-11] | 47500 | 105 | 452 | – | – | –
Cc1c(C=Cc2ccccc2)nn(-c2ccc(Cl)cc2Cl)c1-c1ccc(Br)cc1 [Compound 1-23] | 16400 | 331 | 49.6 | – | – | –
Cc1c(C(=O)NN2CCCCC2)nn(-c2ccc(Cl)cc2Cl)c1-c1ccc(Br)cc1 [Compound 3-16] | 897 | 17 | 52.8 | – | – | –
Cc1c(NC(=O)OC2CCCCC2)nn(-c2ccc(Cl)cc2Cl)c1-c1ccc(Br)cc1 [Compound 3-9] | 449 | 69 | 6.5 | – | – | –
Cc1c(C(=O)NC23CC4CC(CC(C4)C2)C3)nn(CCCCCCl)c1-c1ccccc1 [Compound 4-2] | – | – | – | 0.704 nM and 0.8 nM | 1.8 | 1.42 nM and 1.4 nM
Cc1c(C(=O)N(C)C2CCCCC2)nn(-c2ccc(Cl)cc2Cl)c1-c1ccc(-c2nnn(C)n2)cc1 [Compound 2-15] | 551 | 105 | 5.2 | – | – | –
Cn1nnnc1-c1ccc(-c2c(CO)c(C(=O)NC3CCCCC3)nn2-c2ccc(Cl)cc2Cl)cc1 [Compound 2-11] | 122 | 118 | 1 | – | – | –
Cc1c(C(=O)NN2CCCCC2)nn(-c2ccc(Cl)cc2Cl)c1-c1ccc(-c2cccnc2)cc1 [Compound 1-4] | 1330 | 11.2 | 118 | – | – | –
COCc1c(C(=O)NC2CCCCC2)nn(-c2ccc(Cl)cc2Cl)c1-c1ccc(-c2cccnc2)cc1 [Compound 1-18] | 646 | 62 | 10.4 | – | – | –
CN(C(=O)Nc1nn(-c2ccc(Cl)cc2Cl)c(-c2ccc(Br)cc2)c1CO)C1CCCCC1 [Compound 2-21] | 4470 | 296 | 15.1 | – | – | –
Cc1c(C=Cc2ccccc2)nn(-c2ccc(Cl)cc2Cl)c1-c1ccc(Br)cc1 [Compound 1-24] | 10600 | 141 | 75.0 | – | – | –
Cc1c(C(=O)NN2CCCCC2)nn(-c2ccc(Cl)cc2Cl)c1-c1ccc(C(=O)O)cc1 [Compound 3-24] | 934 | 738 | 1.3 | – | – | –
COCOCc1c(C(=O)NC2CCCCC2)nn(-c2ccc(Cl)cc2Cl)c1-c1ccc(Br)cc1 [Compound 1-13] | 54 | 15 | 3.6 | – | – | –
Cc1c(C(=O)NC2CCCCC2)nn(-c2ccc(Cl)cc2Cl)c1-c1ccc(-c2nnnn2C)cc1 [Compound 2-8] | 1070 | 120 | 8.9 | – | – | –
COCc1c(C(=O)N(C)C2CCCCC2)nn(-c2ccc(Cl)cc2Cl)c1-c1ccc(Br)cc1 [Compound 1-29] | – | – | 7.5 | 2040 nM | – | 273 nM
Cc1c(C(=O)Nc2ccc3ccccc3c2)nn(CCCCCCl)c1-c1ccccc1 [Compound 4-3] | – | – | – | 15.4 nM | – | 14.6 nM
COCc1c(C(=O)NC2CCCCC2)nn(-c2ccc(Cl)cc2Cl)c1-c1ccc(-c2ccccn2)cc1 [Compound 1-20] | 277 | 51 | 5.4 | – | – | –
O=C(NN1CCCCC1)c1nn(-c2ccc(Cl)cc2Cl)c(-c2ccc(-c3cccnc3)cc2)c1CO [Compound 3-21] | 207 | 76 | – | – | – | –
Cc1c(NC(=O)C2CCCCC2)nn(-c2ccc(Cl)cc2Cl)c1-c1ccc(Br)cc1 [Compound 3-14] | – | 4230 | 6.4 | 27100 nM | – | –
O=C(NN1CCCCC1)c1nn(-c2ccc(Cl)cc2Cl)c(-c2ccc(Br)cc2)c1CO [Compound 3-3] | – | – | 10.6 | 490 nM | – | 46 nM
Cc1c(NC(=O)NC23CC4CC(CC(C4)C2)C3)nn(-c2ccc(Cl)cc2Cl)c1-c1ccc(Br)cc1 [Compound 3-12] | 756 | 259 | 2.9 | – | – | –
Cc1c(C=CC23CC4CC(CC(C4)C2)C3)nn(-c2ccc(Cl)cc2Cl)c1-c1ccc(Br)cc1 [Compound 1-25] | 4010 | 17700 | – | – | 4.4 | –
Cc1c(C(=O)NC23CC4CC(CC(C4)C2)C3)nn(CCCCCI)c1-c1ccccc1 [Compound 4-10] | – | – | – | 1.01 nM and 1 nM | 1.3 | 1.34 nM and 1.3 nM

Structure (SMILES) | Ki (CB2 receptor; [1]) [nM] | Ki (CB1 cannabinoid receptor; [2]) [nM] | selectivity CB1 (CB1 cannabinoid receptor) | Ki (CB2 receptor; [3]) | selectivity CB2 (CB2 receptor) | Ki (CB1 cannabinoid receptor; [4])
Cc1c(C(=O)NN2CCCCC2)nn(-c2ccc(Cl)cc2Cl)c1-c1ccc(C#N)cc1 [Compound 3-23] | 4690 | 22 | 213.3 | – | – | –
CN(C(=O)c1nn(-c2ccc(Cl)cc2Cl)c(-c2ccc(-c3nnnn3C)cc2)c1CO)C1CCCCC1 [Compound 2-17] | 1410 | 1080 | 1.3 | – | – | –
Cc1c(C(=O)NN2CCCCC2)nn(-c2ccc(Cl)cc2Cl)c1-c1ccc(-c2nnn[nH]2)cc1 [Compound 2-1] | 702 | 455 | 1.5 | – | – | –
Cc1c(C(=O)NN2CCCCC2)nn(-c2ccc(Cl)cc2Cl)c1-c1ccc(-c2ccccc2Cl)cc1 [Compound 1-3] | 1370 | 85.1 | 16 | – | – | –
Cc1c(C(=O)NC23CC4CC(CC(C4)C2)C3)nn(CCCCCN=[N+]=[N-])c1-c1ccccc1 [Compound 4-11] | – | – | – | 0.965 nM and 1 nM | 4 | 3.96 nM and 4 nM
Cn1nnnc1-c1ccc(-c2c(CO)c(C(=O)NN3CCCCC3)nn2-c2ccc(Cl)cc2Cl)cc1 [Compound 2-5] | 2130 | 203 | 10.5 | – | – | –
Cc1c(C(=O)NC2CC(C)C3CC2C3(C)C)nn(CCCCCCl)c1-c1ccccc1 (stereo not shown) [Compound 4-7] | – | – | – | 2.76 nM and 2.8 nM | 1.7 | 4.73 nM and 4.7 nM
O=C(NN1CCCCC1)c1nn(-c2ccc(Cl)cc2Cl)c(-c2ccc(-c3nnn[nH]3)cc2)c1CO [Compound 2-4] | 13600 | 1840 | 7.4 | – | – | –
CN(C)CCOCc1c(C(=O)NC2CCCCC2)nn(-c2ccc(Cl)cc2Cl)c1-c1ccc(Br)cc1 [Compound 1-16] | 140 | 24 | 5.8 | – | – | –
N#Cc1ccc(-c2c(CO)c(C(=O)NN3CCCCC3)nn2-c2ccc(Cl)cc2Cl)cc1 [Compound 3-22] | 2740 | 64 | 42.8 | – | – | –
Cc1c(C(=O)NN2CCCCC2)nn(-c2ccc(Cl)cc2Cl)c1-c1ccc(-c2ccc(Cl)cc2)cc1 [Compound 1-2] | 1590 | 5.8 | 274 | – | – | –
COCOCc1c(C(=O)N2CCCCC2)nn(-c2ccc(Cl)cc2Cl)c1-c1ccc(Br)cc1 [Compound 1-14] | – | 395 | 7.8 | 3100 nM | – | –
CN(C(=O)c1nn(-c2ccc(Cl)cc2Cl)c(-c2ccc(-c3cccnc3)cc2)c1CO)C1CCCCC1 [Compound 3-4] | 759 | 227 | 3.3 | – | – | –
Cc1c(NC(=O)N2CCCCC2)nn(-c2ccc(Cl)cc2Cl)c1-c1ccc(Br)cc1 [Compound 3-13] | 284 | 47 | 6.0 | – | – | –
Cc1c(C(=O)N(C)C2CCCCC2)nn(-c2ccc(Cl)cc2Cl)c1-c1ccc(C#N)cc1 [Compound 3-15] | 10800 | 50 | 216.5 | – | – | –
Cc1c(C(=O)N(C)C2CCCCC2)nn(-c2ccc(Cl)cc2Cl)c1-c1ccc(-c2nnnn2C)cc1 [Compound 2-14] | 941 | 1270 | – | – | 1.4 | –
Cc1c(C(=O)NN2CCCCC2)nn(-c2ccc(Cl)cc2Cl)c1-c1ccc(C(N)=S)cc1 [Compound 3-25] | 127 | 86 | 1.5 | – | – | –
Cc1c(NC(=O)NC2CCCCC2)nn(-c2ccc(Cl)cc2Cl)c1-c1ccc(I)cc1 [Compound 3-10] | 21800 | 26 | 838.1 | – | – | –
CCCCCC=Cc1nn(-c2ccc(Cl)cc2Cl)c(-c2ccc(Br)cc2)c1C [Compound 1-26] | – | 7680 | 6.9 | 52900 nM | – | –
O=C(Nc1nn(-c2ccc(Cl)cc2Cl)c(-c2ccc(Br)cc2)c1CO)NC1CCCCC1 [Compound 2-19] | 4920 | 9 | 546.7 | – | – | –
O=C(NN1CCCCC1)c1nn(-c2ccc(Cl)cc2Cl)c(-c2ccc(-c3cccnc3)cc2)c1CF [Compound 1-6] | 1930 | 15.1 | 128 | – | – | –
O=C(NC1CCCCC1)c1nn(-c2ccc(Cl)cc2Cl)c(-c2ccc(-c3nnn[nH]3)cc2)c1CO [Compound 2-10] | 463 | 192 | 2.4 | – | – | –
CN(C(=O)c1nn(-c2ccc(Cl)cc2Cl)c(-c2ccc(I)cc2)c1CO)C1CCCCC1 [Compound 3-2] | – | – | 29.3 | 528 nM | – | 18 nM
